Test results from ChEMBL document CHEMBL1148683, “Synthesis and monoamine transporter affinity of front bridged tricyclic 3beta-(4'-halo or 4'-methyl)phenyltropanes bearing methylene or carbomethoxymethylene on the bridge to the 2beta-position” (Bioorg Med Chem Lett, 2006).

Experiments:
Rhesus monkey [1] = assay: Selective uptake in thalamus over occipital cortex of iv dosed rhesus monkey after 105 mins by microPET imaging assay; assay type: ADME, organism-based, Macaca mulatta; conditions: in vivo, 1.75 h
Rhesus monkey [2] = assay: Selective uptake in caudate over occipital cortex of iv dosed rhesus monkey after 105 mins by microPET imaging assay; assay type: ADME, organism-based, Macaca mulatta; conditions: in vivo, 1.75 h
[3] = biological target: T1, Sodium-dependent noradrenaline transporter (Homo sapiens, UniProt P23975); assay: Inhibition of (-)-[3H]NE uptake at NET
T1 sequence (P23975 whole entry): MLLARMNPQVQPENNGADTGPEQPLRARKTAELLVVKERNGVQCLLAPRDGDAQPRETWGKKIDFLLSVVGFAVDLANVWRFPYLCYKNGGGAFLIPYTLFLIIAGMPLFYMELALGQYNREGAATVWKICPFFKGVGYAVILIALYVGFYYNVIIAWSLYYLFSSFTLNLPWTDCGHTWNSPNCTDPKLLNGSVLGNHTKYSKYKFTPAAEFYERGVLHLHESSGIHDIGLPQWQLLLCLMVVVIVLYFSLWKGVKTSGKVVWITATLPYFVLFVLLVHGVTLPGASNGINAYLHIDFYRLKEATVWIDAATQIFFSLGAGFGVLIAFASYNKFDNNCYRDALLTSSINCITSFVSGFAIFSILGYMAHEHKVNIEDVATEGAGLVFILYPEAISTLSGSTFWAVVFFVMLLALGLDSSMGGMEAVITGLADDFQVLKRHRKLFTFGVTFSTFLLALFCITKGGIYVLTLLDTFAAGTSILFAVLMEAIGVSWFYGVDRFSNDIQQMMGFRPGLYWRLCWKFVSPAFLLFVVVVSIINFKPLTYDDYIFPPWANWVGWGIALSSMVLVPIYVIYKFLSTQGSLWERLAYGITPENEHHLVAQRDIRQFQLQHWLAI

[4] = biological target: Sodium-dependent dopamine transporter (Homo sapiens, UniProt Q01959); assay: Displacement of [125I]RTI-55 from human DAT transfected in HEK293 cells; assay type: cell-based
Sodium-dependent dopamine transporter, sequence (Q01959 whole entry): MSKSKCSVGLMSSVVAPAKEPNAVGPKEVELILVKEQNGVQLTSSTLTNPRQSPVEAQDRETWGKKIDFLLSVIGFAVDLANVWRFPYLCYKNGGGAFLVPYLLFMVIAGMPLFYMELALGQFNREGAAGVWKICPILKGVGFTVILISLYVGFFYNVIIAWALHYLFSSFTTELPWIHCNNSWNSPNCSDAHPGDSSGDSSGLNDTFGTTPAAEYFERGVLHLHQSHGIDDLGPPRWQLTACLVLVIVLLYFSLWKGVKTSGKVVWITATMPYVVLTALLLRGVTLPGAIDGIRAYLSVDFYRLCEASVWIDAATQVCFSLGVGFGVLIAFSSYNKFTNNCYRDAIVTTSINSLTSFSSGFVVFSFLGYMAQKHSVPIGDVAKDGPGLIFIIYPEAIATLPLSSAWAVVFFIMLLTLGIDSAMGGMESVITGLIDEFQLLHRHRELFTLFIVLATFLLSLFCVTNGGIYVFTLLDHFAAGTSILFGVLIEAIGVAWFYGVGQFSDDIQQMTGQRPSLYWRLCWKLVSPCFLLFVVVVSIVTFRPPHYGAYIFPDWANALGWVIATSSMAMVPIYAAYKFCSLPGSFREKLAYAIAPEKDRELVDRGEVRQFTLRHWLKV

Rhesus monkey [5] = assay: Selective uptake in medulla over occipital cortex of iv dosed rhesus monkey after 105 mins by microPET imaging assay; assay type: ADME, organism-based, Macaca mulatta; conditions: in vivo, 1.75 h
Rhesus monkey [6] = assay: Selective uptake in cerebellum over occipital cortex of iv dosed rhesus monkey after 25 mins by microPET imaging assay; assay type: ADME, organism-based, Macaca mulatta; conditions: in vivo
Rhesus monkey [7] = assay: Selective uptake in pons over occipital cortex of iv dosed rhesus monkey after 105 mins by microPET imaging assay; assay type: ADME, organism-based, Macaca mulatta; conditions: in vivo, 1.75 h
[8] = biological target: T1, Sodium-dependent noradrenaline transporter; assay: Displacement of [3H]nisoxetine from human NET transfected in HEK293 cells; assay type: cell-based
Rhesus monkey [9] = assay: Selective uptake in midbrain over occipital cortex of iv dosed rhesus monkey after 105 mins by microPET imaging assay; assay type: ADME, organism-based, Macaca mulatta, Brain; conditions: in vivo, 1.75 h
[10] = biological target: Sodium-dependent serotonin transporter (Homo sapiens, UniProt P31645); assay: Displacement of [3H]citalopram from human SERT transfected in HEK293 cells; assay type: cell-based
Sodium-dependent serotonin transporter, sequence (P31645 whole entry): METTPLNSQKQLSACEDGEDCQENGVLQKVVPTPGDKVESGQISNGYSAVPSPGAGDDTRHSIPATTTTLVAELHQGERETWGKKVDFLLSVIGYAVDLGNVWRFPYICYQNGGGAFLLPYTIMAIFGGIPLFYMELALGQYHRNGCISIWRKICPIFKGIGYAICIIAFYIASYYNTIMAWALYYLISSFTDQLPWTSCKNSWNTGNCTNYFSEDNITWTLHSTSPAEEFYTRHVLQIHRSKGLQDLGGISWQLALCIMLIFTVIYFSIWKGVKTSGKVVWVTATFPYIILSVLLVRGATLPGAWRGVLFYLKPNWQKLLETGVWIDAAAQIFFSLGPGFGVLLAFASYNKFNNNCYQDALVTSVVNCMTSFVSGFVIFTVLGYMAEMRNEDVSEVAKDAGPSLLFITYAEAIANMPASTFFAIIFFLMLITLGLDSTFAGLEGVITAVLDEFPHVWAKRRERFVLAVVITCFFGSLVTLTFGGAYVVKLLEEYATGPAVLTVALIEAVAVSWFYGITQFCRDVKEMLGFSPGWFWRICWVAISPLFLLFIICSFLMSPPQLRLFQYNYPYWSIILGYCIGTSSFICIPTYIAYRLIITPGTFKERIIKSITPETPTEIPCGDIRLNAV

Rhesus monkey [11] = assay: Selective uptake in putamen over occipital cortex of iv dosed rhesus monkey after 105 mins by microPET imaging assay; assay type: ADME, organism-based, Macaca mulatta; conditions: in vivo, 1.75 h
[12] = biological target: Serotonin and norepinephrine transporters (SERT/NET) (Homo sapiens) (UniProt P31645+P23975); assay: Selectivity for human SERT over NET; assay type: protein assay
Serotonin and norepinephrine transporters (SERT/NET) (Homo sapiens), sequence (P23975 whole entry, looked up): as the sequence (P23975 whole entry) above
Serotonin and norepinephrine transporters (SERT/NET) (Homo sapiens), sequence (P31645 whole entry, looked up): as the sequence (P31645 whole entry) above

[13] = biological target: Monoamine transporters; serotonin & dopamine (Homo sapiens) (UniProt P31645+Q01959); assay: Selectivity for human SERT over DAT; assay type: protein assay
Monoamine transporters; serotonin & dopamine (Homo sapiens), sequence (P31645 whole entry, looked up): as the sequence (P31645 whole entry) above
Monoamine transporters; serotonin & dopamine (Homo sapiens), sequence (Q01959 whole entry, looked up): as the sequence (Q01959 whole entry) above

| Structure (SMILES) | Ki [4] | Ki [8] | Ki [10] | other results |
| --- | --- | --- | --- | --- |
| C=C1CN2C3CCC2C1C(c1ccc(C)cc1)C3 (stereo unspecified) | 41 nM | 17.3 nM | 7.77 nM | Ratio (Rhesus monkey [1]): 1.48; Ratio (Rhesus monkey [2]): 1.47; IC50 [3]: 2.2 nM; Ratio (Rhesus monkey [5]): 1.36; Ratio (Rhesus monkey [6]): 1.39; Ratio (Rhesus monkey [7]): 1.52; Ratio (Rhesus monkey [9]): 1.53; Ratio (Rhesus monkey [11]): 1.83 |
| COC(=O)/C=C1/CN2C3CCC2C1C(c1ccc(C)cc1)C3 (stereo unspecified) | 13.2 nM | 25.5 nM | 98.3 nM |  |
| C=C1CN2C3CCC2C1C(c1ccc(Cl)cc1)C3 (stereo unspecified) | 12.3 nM | 4.84 nM | 0.82 nM |  |
| COC(=O)/C=C1/CN2C3CCC2C1C(c1ccc(Cl)cc1)C3 (stereo unspecified) | 4.54 nM | 13 nM | 18.7 nM |  |
| COC(=O)/C=C1/CN2C3CCC2C1C(c1ccc(Br)cc1)C3 (stereo unspecified) | 2.94 nM | 12.5 nM | 5.63 nM |  |
| C=C1CN2C3CCC2C1C(c1ccc(I)cc1)C3 (stereo unspecified) | 8.48 nM | 5.87 nM | 0.09 nM | Selectivity ratio [12]: 65; Selectivity ratio [13]: 94 |
| C=C1CN2C3CCC2C1C(c1ccc(Br)cc1)C3 (stereo unspecified) | 41.9 nM | 2.94 nM | 0.28 nM |  |
